Measured values from BigSolDB 2.1.

O=C1CCC(c2ccccc2)=NN1
solubility (mole fraction)
Conditions	293.15 K	298.15 K	303.15 K	308.15 K	313.15 K
in transcutol	0.425	0.453	0.478	0.507	0.527
in water	7.45e-07	9.1e-07	1.09e-06	1.34e-06	1.64e-06
